From BindingDB's records for doi:10.1021/jm00164a044 (Niddk, 1990)

Test: Muscarinic acetylcholine receptor binding affinity was determined using [3H]NMS for NG108-15 neuroblastoma cells

| Compound | Ki |
| --- | --- |
| CC(=O)N(C)CC#CCN1CCCC1 | 4500 nM |
| CN(CC#CCN1CCCC1)C(=O)CCCCCCN | 3100 nM |
| CN(CC#CCN1CCCC1)C(=O)CCCCCCCN | 700 nM |
| CN(CC#CCN1CCCC1)C(=O)CCCCCCCNC(=O)OC(C)(C)C | 1900 nM |
